The experiment has as its system patients with Type 1 diabetes. Put plainly: Liquid meal challenge with IV insulin alone or IV insulin-glucagon co-infusion (4:1). It is filed as in vivo, human. Particulars: for Requiring IV glucose rescue: subjects of eleven, rescue if plasma glucose dropped to 50 mg/dl. As for the experimental part: Referring now to FIG. 12, a study protocol conducted by the applicant in human patients with Type 1 diabetes is illustrated, consistent with the present inventive concepts. […] The liquid meal challenge allows a clinically relevant assessment of plasma glucose rise and fall. […] By protocol, if plasma glucose dropped to 50 mg/dl, a variable glucose infusion was applied to maintain the glucose level at approximately 50 mg/dl, to avoid more serious hypoglycemia from occurring.
FIG. 13 illustrates the glucose excursion following the meal challenge for eleven patients (also referred to as “subjects” herein). […] The glucose excursion data is also presented below in Table 1, which compares peak plasma glucose levels and AUCs (area under curve) for the two treatment groups.

With insulin, the “subjects that had to be rescued” value (7 subjects whose glucose fell below the pre-meal value in the last 30 minutes) is 5. The “average glucose infusion rate” value (7 subjects whose glucose fell below the pre-meal value, last 30 minutes) is 5.9 ± 2.2 mg/kg/min. Where the note is “eleven Type 1 diabetes patients”, the “Time <70 mg/dl” value is listed as 20 ± 7%. The “ΔPG 0-120AUC” value (eleven Type 1 diabetes patients, 0-120 min after liquid meal) worked out at 8162 ± 1514 mg·min/dL. In addition, for the setting “eleven Type 1 diabetes patients, 0-180 min after liquid meal”, the “ΔPG 0-180AUC” value came out at 10501 ± 3014 mg·min/dL. In addition, the “Peak PG” value (eleven Type 1 diabetes patients, after liquid meal) worked out at 224 ± 18 mg/dL. The “Fasting PG” value (eleven Type 1 diabetes patients, before liquid meal) turned out to be 121 ± 5 mg/dL. Also, the “sympathetic central nervous system response to hypoglycemia (venous plasma norepinephrine and epinephrine)” value (four patients) is “elevations of venous plasma norepinephrine and epinephrine”. The “average glucose infusion rate over the last 30 minutes” value (in all subjects (eleven-subject comparison)) was found to be 3.8 ± 1.6 mg/kg/min. Moreover, for the setting “lowest point during insulin-alone arm vs equivalent time point during insulin-glucagon arm”, the PG nadir is 51 ± 4.0 mg/dL. Moreover, under “seven subjects with plasma glucose <80 mg/dl in insulin-alone arm, matching time point in insulin-glucagon arm”, the “average plasma glucose nadir” value was 50 ± 4 mg/dL. The “Requiring IV glucose rescue” value by setting is: (listed as Insulin-Alone) 5/11; (listed as insulin-alone) “Five of eleven”. The “patients rescued with glucose infusions” value (subset of four patients with more complete hormone analysis) is “Three out of the four”.

Source of the values: patent US20230293639A1, “SYSTEMS, DEVICES, COMPOSITIONS, AND METHODS FOR TREATING DIABETES” (Abvance Therapeutics, Inc., priority 2020, published 2023).
